Laboratory results: the supplement of paper PMC12463676, “Small-molecule dissolution of stress granules by redox modulation benefits ALS models” (Nature Chemical Biology, 2025)

Key:
lipoamide = compound: NC(=O)CCCCC1CCSS1 [lipoamide]; assay: thermal stability z-score vs DMSO; higher = more thermally stabilized by treatment; details: HeLa, lipoamide concentration 100 µM
Method: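 Cellular thermal proteome profiling in HeLa cells. Cells were treated with 100 µM lipoamide for 1 h, with or without 1 mM arsenate for a further 1 h, then heated to ten temperatures (37-66.3 °C), and soluble protein was quantified by TMT mass spectrometry relative to 0.1% DMSO controls. The thermal stability score (sum of log2 fold changes minus the abundance score) was transformed to a z-score; mean of n = 3 experiments.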

potassium arsenate = compound: O=[As]([O-])(O)O.[K+] [potassium arsenate]; assay: as above; details: HeLa; arsenate concentration 1 mM
Method: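 Cellular thermal proteome profiling in HeLa cells treated with 1 mM arsenate for 1 h (DMSO pretreatment), heated to ten temperatures (37-66.3 °C). Soluble protein was quantified by TMT mass spectrometry relative to DMSO controls; the thermal stability score was transformed to a z-score; mean of n = 3 experiments.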

[1] = arsenate co-treatment: 1 mM arsenate 1 h
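Further: each temperature applied for 3 min, abundance score taken as mean log2 fold change at the two lowest temperatures, z-score obtained by mean subtraction and division by SD.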

Chain of UniProt Q8NFH5 (Q8NFH5 whole entry): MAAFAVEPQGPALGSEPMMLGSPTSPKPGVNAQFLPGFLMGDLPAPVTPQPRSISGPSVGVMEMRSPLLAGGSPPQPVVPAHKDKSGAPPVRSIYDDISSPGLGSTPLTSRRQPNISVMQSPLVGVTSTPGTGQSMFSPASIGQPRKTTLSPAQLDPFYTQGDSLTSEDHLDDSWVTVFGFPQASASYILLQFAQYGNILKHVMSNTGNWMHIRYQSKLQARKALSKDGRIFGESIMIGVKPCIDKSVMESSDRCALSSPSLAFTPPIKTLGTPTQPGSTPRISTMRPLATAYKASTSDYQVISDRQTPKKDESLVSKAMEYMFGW
Chain of UniProt P55209 (P55209 whole entry): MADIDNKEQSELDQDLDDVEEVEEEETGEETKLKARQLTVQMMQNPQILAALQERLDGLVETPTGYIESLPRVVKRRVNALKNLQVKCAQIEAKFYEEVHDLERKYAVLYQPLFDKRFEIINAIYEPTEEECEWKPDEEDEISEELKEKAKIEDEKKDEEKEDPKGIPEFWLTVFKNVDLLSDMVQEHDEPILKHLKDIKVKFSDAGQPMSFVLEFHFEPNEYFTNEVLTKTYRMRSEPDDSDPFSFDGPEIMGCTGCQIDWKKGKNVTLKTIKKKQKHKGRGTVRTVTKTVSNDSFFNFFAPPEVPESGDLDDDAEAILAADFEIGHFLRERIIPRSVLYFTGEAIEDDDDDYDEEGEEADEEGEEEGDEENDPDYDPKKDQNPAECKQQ
Chain of UniProt Q96CP2 (Q96CP2 whole entry): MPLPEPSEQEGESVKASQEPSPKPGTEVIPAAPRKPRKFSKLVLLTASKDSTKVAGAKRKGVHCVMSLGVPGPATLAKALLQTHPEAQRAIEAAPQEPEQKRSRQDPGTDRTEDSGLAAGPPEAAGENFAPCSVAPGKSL
Chain of UniProt Q8N3R9 (Q8N3R9 whole entry): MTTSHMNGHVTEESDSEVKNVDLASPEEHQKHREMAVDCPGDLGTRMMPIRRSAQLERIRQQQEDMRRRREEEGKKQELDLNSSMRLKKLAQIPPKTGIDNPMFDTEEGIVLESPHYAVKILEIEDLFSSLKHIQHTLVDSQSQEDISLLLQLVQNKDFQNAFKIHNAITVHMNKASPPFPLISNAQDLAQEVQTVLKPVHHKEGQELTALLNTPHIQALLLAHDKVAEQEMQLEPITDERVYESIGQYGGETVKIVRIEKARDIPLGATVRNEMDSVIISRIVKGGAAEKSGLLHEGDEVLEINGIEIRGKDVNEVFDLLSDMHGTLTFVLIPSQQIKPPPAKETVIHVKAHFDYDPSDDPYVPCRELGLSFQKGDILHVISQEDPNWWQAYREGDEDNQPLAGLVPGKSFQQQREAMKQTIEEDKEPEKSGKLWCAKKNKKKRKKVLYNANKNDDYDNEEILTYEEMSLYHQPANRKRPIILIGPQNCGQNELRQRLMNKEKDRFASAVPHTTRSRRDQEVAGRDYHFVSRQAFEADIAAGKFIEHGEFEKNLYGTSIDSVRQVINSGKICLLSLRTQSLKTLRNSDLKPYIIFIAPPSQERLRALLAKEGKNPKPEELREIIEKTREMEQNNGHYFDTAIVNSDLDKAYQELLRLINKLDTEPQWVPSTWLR
Chain of UniProt P15559 (P15559 whole entry): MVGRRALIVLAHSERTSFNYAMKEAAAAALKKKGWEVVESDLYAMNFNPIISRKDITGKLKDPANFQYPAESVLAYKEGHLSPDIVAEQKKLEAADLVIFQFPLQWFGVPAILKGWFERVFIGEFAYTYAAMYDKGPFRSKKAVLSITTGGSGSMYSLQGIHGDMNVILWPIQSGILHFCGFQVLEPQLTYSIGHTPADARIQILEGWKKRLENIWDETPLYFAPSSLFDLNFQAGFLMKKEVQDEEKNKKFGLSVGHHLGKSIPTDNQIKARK
Chain of UniProt Q8IZ73 (Q8IZ73 whole entry): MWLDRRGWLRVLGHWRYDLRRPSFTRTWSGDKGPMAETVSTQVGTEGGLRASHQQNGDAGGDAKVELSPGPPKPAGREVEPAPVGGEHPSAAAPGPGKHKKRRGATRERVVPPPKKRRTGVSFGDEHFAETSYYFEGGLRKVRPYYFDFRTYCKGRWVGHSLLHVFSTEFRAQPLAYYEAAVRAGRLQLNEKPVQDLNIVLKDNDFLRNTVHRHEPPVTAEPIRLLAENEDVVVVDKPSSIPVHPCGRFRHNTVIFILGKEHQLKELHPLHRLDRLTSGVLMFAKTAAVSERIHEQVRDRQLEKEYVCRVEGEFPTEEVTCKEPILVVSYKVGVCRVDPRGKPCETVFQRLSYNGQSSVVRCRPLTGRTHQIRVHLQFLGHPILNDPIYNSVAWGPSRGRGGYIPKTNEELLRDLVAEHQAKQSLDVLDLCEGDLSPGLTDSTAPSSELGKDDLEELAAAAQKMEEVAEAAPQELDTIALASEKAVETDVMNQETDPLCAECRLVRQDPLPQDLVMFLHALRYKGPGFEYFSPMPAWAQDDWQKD
Chain of UniProt Q14203 (Q14203 whole entry): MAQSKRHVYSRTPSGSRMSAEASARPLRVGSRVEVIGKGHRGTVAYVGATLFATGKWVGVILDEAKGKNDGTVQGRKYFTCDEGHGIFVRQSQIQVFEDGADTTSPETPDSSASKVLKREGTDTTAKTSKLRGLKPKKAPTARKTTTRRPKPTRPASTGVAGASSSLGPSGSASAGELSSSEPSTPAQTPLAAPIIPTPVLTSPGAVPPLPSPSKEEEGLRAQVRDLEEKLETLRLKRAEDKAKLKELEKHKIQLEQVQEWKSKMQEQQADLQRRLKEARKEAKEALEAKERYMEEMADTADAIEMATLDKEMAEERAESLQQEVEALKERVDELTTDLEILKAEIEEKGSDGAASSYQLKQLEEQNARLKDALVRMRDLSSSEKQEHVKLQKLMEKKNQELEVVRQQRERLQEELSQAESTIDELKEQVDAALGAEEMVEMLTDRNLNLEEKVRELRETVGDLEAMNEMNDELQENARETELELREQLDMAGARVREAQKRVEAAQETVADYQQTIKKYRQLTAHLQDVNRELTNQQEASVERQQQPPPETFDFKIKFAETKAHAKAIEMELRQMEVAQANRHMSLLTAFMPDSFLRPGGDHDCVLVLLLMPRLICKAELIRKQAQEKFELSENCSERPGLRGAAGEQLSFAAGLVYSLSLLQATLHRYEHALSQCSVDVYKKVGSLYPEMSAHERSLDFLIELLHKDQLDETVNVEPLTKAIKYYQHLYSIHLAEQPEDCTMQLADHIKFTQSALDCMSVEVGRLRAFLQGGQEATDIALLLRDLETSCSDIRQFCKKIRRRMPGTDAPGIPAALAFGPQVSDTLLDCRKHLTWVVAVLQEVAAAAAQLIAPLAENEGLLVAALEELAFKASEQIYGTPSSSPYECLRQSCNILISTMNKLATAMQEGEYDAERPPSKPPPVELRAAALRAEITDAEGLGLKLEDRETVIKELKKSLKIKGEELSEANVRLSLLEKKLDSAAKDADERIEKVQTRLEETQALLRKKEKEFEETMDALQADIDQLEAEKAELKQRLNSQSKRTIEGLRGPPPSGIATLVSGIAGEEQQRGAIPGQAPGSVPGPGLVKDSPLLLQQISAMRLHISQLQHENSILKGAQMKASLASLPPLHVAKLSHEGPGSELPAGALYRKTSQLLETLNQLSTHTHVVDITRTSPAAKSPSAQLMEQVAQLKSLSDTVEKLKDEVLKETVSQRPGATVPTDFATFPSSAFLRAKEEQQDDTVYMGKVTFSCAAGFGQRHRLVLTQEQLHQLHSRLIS
Chain of UniProt O15379 (O15379 whole entry): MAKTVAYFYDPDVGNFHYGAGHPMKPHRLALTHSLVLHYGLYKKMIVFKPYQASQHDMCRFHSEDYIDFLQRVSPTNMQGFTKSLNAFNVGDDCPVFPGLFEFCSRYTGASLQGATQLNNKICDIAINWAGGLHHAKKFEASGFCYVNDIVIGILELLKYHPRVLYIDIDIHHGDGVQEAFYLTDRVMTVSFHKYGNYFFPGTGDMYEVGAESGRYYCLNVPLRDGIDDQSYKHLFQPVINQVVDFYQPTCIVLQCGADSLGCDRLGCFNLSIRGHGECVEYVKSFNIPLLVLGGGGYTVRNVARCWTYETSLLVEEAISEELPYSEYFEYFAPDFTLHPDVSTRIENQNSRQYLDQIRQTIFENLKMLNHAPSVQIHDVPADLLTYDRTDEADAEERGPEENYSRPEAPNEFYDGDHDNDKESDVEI
Chain of UniProt Q8IWF6 (Q8IWF6 whole entry): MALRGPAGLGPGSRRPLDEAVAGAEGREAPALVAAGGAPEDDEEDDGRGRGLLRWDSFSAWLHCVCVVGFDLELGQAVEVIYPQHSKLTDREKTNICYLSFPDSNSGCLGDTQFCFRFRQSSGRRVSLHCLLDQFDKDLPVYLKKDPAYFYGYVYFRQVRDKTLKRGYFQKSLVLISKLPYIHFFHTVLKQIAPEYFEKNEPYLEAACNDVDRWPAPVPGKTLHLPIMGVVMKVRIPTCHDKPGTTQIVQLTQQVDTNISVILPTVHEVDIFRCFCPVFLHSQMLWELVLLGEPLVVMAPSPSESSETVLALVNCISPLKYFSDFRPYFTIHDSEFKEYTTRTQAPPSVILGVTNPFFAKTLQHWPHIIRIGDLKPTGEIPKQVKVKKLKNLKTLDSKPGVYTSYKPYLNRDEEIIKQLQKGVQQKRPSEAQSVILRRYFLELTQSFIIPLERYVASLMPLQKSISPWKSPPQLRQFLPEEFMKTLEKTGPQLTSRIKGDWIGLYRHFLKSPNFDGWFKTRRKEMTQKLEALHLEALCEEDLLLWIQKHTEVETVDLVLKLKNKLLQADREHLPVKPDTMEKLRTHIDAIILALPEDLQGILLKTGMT
Chain of UniProt Q8TEA8 (Q8TEA8 whole entry): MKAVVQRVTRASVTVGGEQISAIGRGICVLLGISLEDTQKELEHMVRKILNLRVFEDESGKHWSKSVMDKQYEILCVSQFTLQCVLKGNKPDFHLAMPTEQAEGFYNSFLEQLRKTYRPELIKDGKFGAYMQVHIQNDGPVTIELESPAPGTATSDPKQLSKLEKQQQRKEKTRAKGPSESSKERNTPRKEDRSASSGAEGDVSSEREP

| Target | thermal stability z-score (lipoamide; [1]) | thermal stability z-score (lipoamide; arsenate co-treatment: none) | thermal stability z-score (potassium arsenate) |
| --- | --- | --- | --- |
| NAP1L1 (UniProt P55209) | -0.552 | -0.224 | -0.164 |
| ARHGEF1 (UniProt Q92888) | -0.381 | -0.242 | 0.0617 |
| PSMD5 (UniProt Q16401) | 0.166 | 0.024 | 0.282 |
| DDX50 (UniProt Q9BQ39) | 0.262 | 0.192 | -0.49 |
| SLC39A14 (UniProt Q15043) | -0.0157 | -0.137 | -0.236 |
| CAND1 (UniProt Q86VP6) | 0.463 | 0.225 | -0.122 |
| DYNC1LI2 (UniProt O43237) | -0.543 | -0.166 | 0.192 |
| SLC27A4 (UniProt Q6P1M0) | -0.824 | -0.358 | -0.197 |
| CHD9 (UniProt Q3L8U1) | -0.0359 | -0.0662 | 0.384 |
| CBLB (UniProt Q13191) | 0.338 | -0.251 | -0.0258 |
| RRBP1 (UniProt Q9P2E9) | 0.226 | 0.25 | -0.458 |
| DNAJC15 (UniProt Q9Y5T4) | 0.824 | 0.507 | -0.793 |
| CPTP (UniProt Q5TA50) | 2.01 | 0.706 | 1.5 |
| VTI1A (UniProt Q96AJ9) | 0.054 | 0.419 | -0.0839 |
| DCTN5 (UniProt Q9BTE1) | -0.414 | -0.0773 | -0.329 |
| DSP (UniProt P15924) | 3.08 | 3.94 | -0.576 |
| RPUSD2 (UniProt Q8IZ73) | -0.528 | 0.461 | 0.29 |
| NUCB1 (UniProt Q02818) | -0.169 | -0.102 | -0.222 |
| ABHD10 (UniProt Q9NUJ1) | 0.377 | -0.241 | -0.374 |
| NQO1 (UniProt P15559) | 0.825 | 0.331 | 0.174 |
| TMED1 (UniProt Q13445) | 0.206 | 0.729 | 0.967 |
| ETF1 (UniProt P62495) | 0.635 | 0.513 | -0.148 |
| LPIN1 (UniProt Q14693) | -0.429 | -0.906 | -1.07 |
| FOXO1 (UniProt Q12778) | -0.211 | -0.123 | 0.182 |

| Target | thermal stability z-score (lipoamide; [1]) | thermal stability z-score (lipoamide; arsenate co-treatment: none) | thermal stability z-score (potassium arsenate) |
| --- | --- | --- | --- |
| DPP9 (UniProt Q86TI2) | -0.0984 | -0.0569 | 0.0941 |
| TSPAN6 (UniProt O43657) | 0.216 | 0.486 | 0.466 |
| ADI1 (UniProt Q9BV57) | 0.768 | 0.913 | -0.317 |
| SLC5A3 (UniProt P53794) | -0.536 | -0.363 | -1.12 |
| NUP35 (UniProt Q8NFH5) | 0.043 | -0.376 | 1.25 |
| PPIH (UniProt O43447) | 0.218 | -0.34 | -0.183 |
| CARHSP1 (UniProt Q9Y2V2) | 0.147 | 0.812 | -5.57 |
| ARL8A (UniProt Q96BM9) | 0.375 | 0.0879 | 0.218 |
| DHX40 (UniProt Q8IX18) | 0.111 | 0.0273 | -0.0831 |
| PHF10 (UniProt Q8WUB8) | -0.191 | -0.061 | -0.359 |
| PHPT1 (UniProt Q9NRX4) | 0.922 | 0.553 | -1.95 |
| C11ORF98 (UniProt E9PRG8) | -0.688 | -0.534 | -1.91 |
| HSPA4 (UniProt P34932) | 0.102 | 0.475 | -0.388 |
| DNAAF2 (UniProt Q9NVR5) | -0.15 | -0.168 | -0.268 |
| FLYWCH2 (UniProt Q96CP2) | 0.101 | 0.222 | 0.0187 |
| IPO13 (UniProt O94829) | -0.112 | -0.218 | -0.159 |
| NDUFA11 (UniProt Q86Y39) | 0.521 | -0.0102 | 0.571 |
| SH3RF1 (UniProt Q7Z6J0) | -0.0346 | 0.00665 | -0.327 |
| MTRF1L (UniProt Q9UGC7) | -1.57 | -0.343 | 0.646 |
| MINK1 (UniProt Q8N4C8) | -0.526 | 0.0558 | -0.0337 |
| RLIM (UniProt Q9NVW2) | -0.546 | -0.0531 | 0.107 |
| NFYB (UniProt P25208) | 0.446 | 0.825 | -0.691 |
| HDAC3 (UniProt O15379) | -0.0189 | -0.0121 | -0.0998 |
| CCDC12 (UniProt Q8WUD4) | 0.646 | 0.397 | -0.605 |

| Target | thermal stability z-score (lipoamide; [1]) | thermal stability z-score (lipoamide; arsenate co-treatment: none) | thermal stability z-score (potassium arsenate) |
| --- | --- | --- | --- |
| STAMBP (UniProt O95630) | -0.0484 | -7.9e-05 | 1.23 |
| SEPHS1 (UniProt P49903) | 0.189 | 0.065 | 0.00514 |
| MPP5 (UniProt Q8N3R9) | -0.0805 | -0.0555 | -0.004 |
| MIF4GD (UniProt A9UHW6) | 0.658 | 0.0749 | -0.165 |
| LSG1 (UniProt Q9H089) | -0.18 | 0.17 | 3.55 |
| MRPL33 (UniProt O75394) | -0.539 | -0.723 | -0.812 |
| THRAP3 (UniProt Q9Y2W1) | 1.84 | 0.438 | -0.985 |
| ATP9A (UniProt O75110) | 0.482 | 0.278 | -0.569 |
| DCTN6 (UniProt O00399) | -0.771 | -0.761 | -0.333 |
| PLOD1 (UniProt Q02809) | -4.26 | -3.77 | 1.2 |
| KCNAB2 (UniProt Q13303) | 0.221 | 0.281 | 0.237 |
| COBL (UniProt O75128) | 0.182 | 0.154 | -0.0126 |
| C17ORF75 (UniProt Q9HAS0) | 0.0162 | -0.0686 | -0.0267 |
| PIK3R4 (UniProt Q99570) | -0.524 | -0.155 | 0.184 |
| ZBED1 (UniProt O96006) | -0.243 | -0.292 | 0.00958 |
| DTD1 (UniProt Q8TEA8) | 0.65 | 0.308 | 0.163 |
| STIP1 (UniProt P31948) | 0.275 | 0.371 | -0.157 |
| DENND6A (UniProt Q8IWF6) | -0.149 | -0.836 | -0.387 |
| ABHD17C (UniProt Q6PCB6) | -0.923 | -0.152 | -0.29 |
| XIAP (UniProt P98170) | -0.12 | -0.0464 | -0.747 |
| DCTN1 (UniProt Q14203) | -0.27 | -0.171 | 0.369 |
| NUBP2 (UniProt Q9Y5Y2) | 0.35 | -0.855 | -0.461 |
| PPL (UniProt O60437) | -0.117 | -0.141 | 0.125 |
